How the values were obtained:
3D G-OF organoids [1] = assay: Immunofluorescent staining of ECM, LOX and HIF2A proteins in 3D G-OF organoids; type: cell-based, human; conditions: for ECM deposition (collagen types, FN) in G-OF organoids: immunofluorescence, 10 μM GM6001, 30 nM T3, 5 mIU/ml TSH, 0.5 mM BAPN, day 1-6
Protocol: (§1) A hanging droplet spheroid culture system was used to generate 3D organoids. To facilitate stable morphology, methylcellulose (Mehocel A4M) was added to the growth medium (52). Prior to seeding the hanging drop culture plate (#HDP1385, Sigma-Aldrich), cells were cultured in 100 mm or 150 mm dishes until reaching approximately 90% confluence. After washing with Hank's Balanced Salt Solution (HBSS), cells were detached using 0.25% Trypsin/EDTA and resuspended in growth medium. After centrifugation for 5 minutes at 300 g, the cell pellet was re-suspended in growth medium containing 0.25% w/v Methocel A4M. Volume was adjusted such that 20,000 cells were contained in 25 μL solution, and 25 μL drops were placed into each well of the drop culture plate (defined as day 0). Organoid medium (growth medium with 0.25% w/v methocel A4M) was used throughout the duration of spheroid culture. Every day, 14 μL culture medium was removed and 14 μL fresh culture medium added to each well.
(§2) Adipogenic differentiation was induced with (growth or organoid) medium containing 250 nM dexamethasone, 10 nM T3, 10 μM troglitazone, and 1 μg/ml insulin on days 1-5, followed by medium with 10 μM troglitazone and 1 μg/ml insulin on days 6-11, then with medium alone on day 12. For the analysis of the lipid droplet formation, organoids were transferred to super-low attachment 6 well dishes and incubated in HBSS containing BODIPY (#D3922, Thermo Fisher Scientific) at 1:500 ratio by volume for 1 hour, then fixed in 4% paraformaldehyde (PFA) in PBS for 10 minutes at room temperature. Fluorescence intensity of BODIPY-stained lipid droplets were measured using Nikon A1 confocal microscope (Tokyo, Japan) and quantified using Image J software version 1.51n (NIH, Bethesda, Md.). Several compounds were added to droplets on day 1 and maintained at the same concentration until collection of organoids on day 6. For individual experiments, these included 10 μM GM6001, (global MMP inhibitor), 30 nM T3, 5 mIU/ml TSH, 30 nM T3+5 mIU/ml TSH, 0.5 mM BAPN (LOX inhibitor), and 1 μM, 5 μM or 10 μM HIF2A antagonist.
Organoids were fixed in 4% PFA/PBS overnight with or without permeabilization in 0.5% Triton X-100 in PBS for 1 hour. To stain extracellular collagen and fibronectin, no permeabilization was performed, and all the detergents were excluded from the subsequent procedures. After blocking in 3% BSA/0.1% PBST for 3 hours at room temperature, organoids were washed 3 times for 30 minutes with PBST. Samples were incubated with primary antibody overnight at 4° C. […]

3D G-OF organoids [2] = assay: Organoid size (cross-sectional area) of 3D G-OF organoids; type: cell-based, human; conditions: T3 30 nM, TSH 5 mIU/ml, or combination; 6-day time course
Protocol: (§3) A hanging droplet spheroid culture system was used to generate 3D organoids. To facilitate stable morphology, methylcellulose (Mehocel A4M) was added to the growth medium (52). Prior to seeding the hanging drop culture plate (#HDP1385, Sigma-Aldrich), cells were cultured in 100 mm or 150 mm dishes until reaching approximately 90% confluence. After washing with Hank's Balanced Salt Solution (HBSS), cells were detached using 0.25% Trypsin/EDTA and resuspended in growth medium. After centrifugation for 5 minutes at 300 g, the cell pellet was re-suspended in growth medium containing 0.25% w/v Methocel A4M. […]
(§4) Adipogenic differentiation was induced with (growth or organoid) medium containing 250 nM dexamethasone, 10 nM T3, 10 μM troglitazone, and 1 μg/ml insulin on days 1-5, followed by medium with 10 μM troglitazone and 1 μg/ml insulin on days 6-11, then with medium alone on day 12. […] Fluorescence intensity of BODIPY-stained lipid droplets were measured using Nikon A1 confocal microscope (Tokyo, Japan) and quantified using Image J software version 1.51n (NIH, Bethesda, Md.). […]
Bright field images of each organoid were captured in 4× or 10× objective lenses using inverted microscope (Olympus IX70). The largest cross-sectional area (CSA) was calculated using Image J software version 1.51n. […] Intensity of immunofluorescent target proteins was quantified using NIH ImageJ software. […]

mouse OF organoids = assay: Tissue stiffness of 3D mouse OF organoids expressing mutant HIF2A (HIF2dPA); type: cell-based; conditions: adeno-Cre-induced HIF2dPA
Protocol: ROSA26-STOP-HIF2dPA (flox/flox) mice were provided by Dr. Emestina Schipani (University of Michigan), and used for the isolation of orbital adipose tissue. Cells isolated from this depot were cultivated as previously reported (50) and cultured in a standard growth medium. A degradation-resistant HIF2A mutant was introduced by adenoviral Cre (Vector; Ad5 CMV-Cre)-recombinase by incubation for 16 hours with the virus. Adenoviral GFP (Vector; Ad5 CMV eGFP.dIE3) or Empty (Vector: Ad5 CMV pLpA.dIE3)-recombinase was used as controls.
as §3, with “medium.” for “medium. After centrifugation for 5 minutes at 300 g, the cell pellet was re-suspended in growth medium containing 0.25% w/v Methocel A4M.”
The mechanical testing of the organoids was performed using the Microsquisher (CellScale, Waterloo, ON, Canada) as recently reported (53). […] The organoids were compressed to 50% deformation (as determined by microscopic camera) for 20 seconds. The force used to produce 50% stain of displacement was measured by the cantilever and data were reported as force/displacement (μN/μm). […]

3D G-OF organoids [3] = assay: Tissue stiffness of 3D G-OF organoids (microindentation compression test); type: cell-based, human; conditions: for tissue stiffness of 3D G-OF organoids: added day 1, kept to day 6, 10 μM GM6001, 30 nM T3, 5 mIU/ml TSH, 0.5 mM BAPN, 1, 5 or 10 μM HIF2A antagonist
Excerpt: (§5) Orbital adipose tissues were obtained from surgical waste samples of de-identified euthyroid patients with GO undergoing orbital decompression and from non-GO subjects without inflammatory orbital disease, who underwent cosmetic eyelid surgery. OFs were isolated and grown as previously described (49). Briefly, tissues were minced into small pieces, placed on 150 mm culture dishes, and submerged in growth medium (DMEM supplemented with 10% v/v FBS, 1% v/v L-glutamine, 1% v/v antibiotic-antimycotic) at a sufficient depth to cover the tissue chunks. Explants were cultured in a humidified incubator • (at 37° C. with 5% CO2), with growth medium changes every 2-3 days. OFs from five GO patients five non-GO patients were isolated and expanded for subsequent experiments. All experiments were performed using OFs of 3-6 passages after the initial cell isolation.
as §1
as §2, with “Fluorescence intensity of BODIPY-stained lipid droplets were measured using Nikon A1 confocal microscope (Tokyo, Japan) and quantified using Image J software version 1.51n (NIH, Bethesda, Md.).” left out
The mechanical testing of the organoids was performed using the Microsquisher (CellScale, Waterloo, ON, Canada) as recently reported (53). The device consists of a microscale parallelplate compression system equipped with a 406-μm diameter cantilever. Organoids placed on a 3 mm-square plate for analysis. Immediately following collecting, organoids were placed in a 40 mL HBSS fluid bath at 37° C. and the cantilever was lowered until the upper compression plate was in contact with the top of the organoid. The organoids were compressed to 50% deformation (as determined by microscopic camera) for 20 seconds. The force used to produce 50% stain of displacement was measured by the cantilever and data were reported as force/displacement (μN/μm).

3D N-OF organoids [4] = assay: Immunofluorescent staining of ECM and HIF2A proteins in 3D N-OF organoids; type: cell-based, human; conditions: immunofluorescence; 10 μM GM6001
Protocol: as §1, with “Every day, 14 μL culture medium was removed and 14 μL fresh culture medium added to each well.” left out
as §4

3D N-OF organoids [5] = assay: Tissue stiffness of 3D N-OF organoids (microindentation compression test); type: cell-based, human; conditions: added day 1, kept to day 6; 10 μM GM6001, 5 mIU/ml TSH
Excerpt: as §5
A hanging droplet spheroid culture system was used to generate 3D organoids. […]
The mechanical testing of the organoids was performed using the Microsquisher (CellScale, Waterloo, ON, Canada) as recently reported (53). […] The organoids were compressed to 50% deformation (as determined by microscopic camera) for 20 seconds. The force used to produce 50% stain of displacement was measured by the cantilever and data were reported as force/displacement (μN/μm).

[6] = listed as allosteric HIF2A antagonist

SMILES: N[C@@H](Cc1cc(I)c(Oc2ccc(O)c(I)c2)c(I)c1)C(=O)O [T3, 3,3′,5-Triiodo-L-thyronine]
- ECM deposition (collagen types, FN) in G-OF organoids (3D G-OF organoids [1]): no discemable impact
- organoid size (CSA) of G-OF organoids (3D G-OF organoids [2]): significant reduction in CSA

SMILES: N#CCCN.O=C(O)/C=C/C(=O)O [BAPN, 3-Aminopropionitrile fumarate salt]
- tissue stiffness of mouse OF organoids with mutant HIF2A expression (mouse OF organoids): completely ameliorated the increased tissue stiffness
- ECM deposition (collagen types, FN) in G-OF organoids (3D G-OF organoids [1]): effectively suppressed the deposition of collagens type I and IV, FN, but not collagen type III and VI
- tissue stiffness of 3D G-OF organoids (3D G-OF organoids [3]): reduction of tissue stiffness

SMILES: CNC(=O)[C@H](Cc1c[nH]c2ccccc12)NC(=O)[C@@H](CC(=O)NO)CC(C)C [GM6001]
- ECM deposition (collagen types) in N-OF spheroids (3D N-OF organoids [4]): significant accumulation of type I, IV, and VI collagens
- ECM deposition (collagen types, FN) in G-OF organoids (3D G-OF organoids [1]): significant accumulation of type I, IV, and VI collagens
- tissue stiffness of 3D N-OF organoids (3D N-OF organoids [5]): increased tissue stiffness
- tissue stiffness of 3D G-OF organoids (3D G-OF organoids [3]): increased tissue stiffness

SMILES: O=[N+]([O-])c1c(Nc2cc(F)cc(Cl)c2)ccc2nonc12 [C12H6ClFN4O3]
- protein levels of LOX and FN in G-OF organoids (3D G-OF organoids [1]; HIF2A antagonist 1 μM, 5 μM or 10 μM): reducing protein levels of LOX and FN, in a dose-dependent manner
- tissue stiffness of M22-stimulated G-OF organoids (3D G-OF organoids [3]; listed as C12H6ClFN4O03): reversed the tissue stiffness caused by TSHR activation
- tissue stiffness of M22-stimulated G-OF organoids (3D G-OF organoids [3]; [6]): reverses
- tissue stiffness of TSH-stimulated G-OF organoids (3D G-OF organoids [3]; listed as C12H6ClFN4O03): reversed the tissue stiffness caused by TSHR activation
- tissue stiffness of TSH-stimulated G-OF organoids (3D G-OF organoids [3]; [6]): reverses
- tissue stiffness of 3D G-OF organoids (3D G-OF organoids [3]): normalized the tissue stiffness
